Assay results from publication PMC7983969 (Virologica Sinica, 2021).

Tests used:
Vero E6 cells = test: Cytotoxicity assay; assay type: cell-based, African green monkey; conditions: 72 h, CCK-8 assay
PEDV [1] = test: Anti-PEDV activity assay, viral loads; assay type: cell-based; conditions: for concentration that completely inhibited PEDV replication: Vero E6 cells, PEDV 0.01 MOI, 48 h post infection, qRT-PCR and TCID50
PEDV [2] = test: Anti-PEDV activity assay, PEDV-induced cytopathic effect; assay type: cell-based; conditions: Vero E6 cells, PEDV 0.01 MOI, until virus control showed complete CPE
[3] = system: human cell lines and primary cells; conditions: cited from earlier work
PDCoV = conditions: ref Brown et al. [2019]; cited from earlier work
PEDV 3CL^pro = conditions: PEDV 3CLpro; ref Ye et al. [2020]; cited from earlier work
PEDV spike protein = test: Indirect immuno-fluorescence assay; assay type: cell-based, porcine epidemic diarrhea virus, variant strain SDSX16; conditions: 0.2 μmol/L, 48 h, Vero E6 cells
[4] = Water solubility and lipophilicity; assay type: physicochemical
[5] = Pharmacokinetics study of RDV-N in ICR mice; assay type: in vivo
[6] = system: feline infectious peritonitis virus (FIPV); conditions: cats, subcutaneous, 5 mg/kg or 2 mg/kg; ref Murphy et al. [2018]; cited from earlier work

Compound: CCC(CC)COC(=O)[C@H](C)N[P@](=O)(OC[C@H]1O[C@@](C#N)(c2ccc3c(N)ncnn23)[C@H](O)[C@@H]1O)Oc1ccccc1 [RDV, remdesivir]
- maximal non-toxic concentration (MNTC) (Vero E6 cells): 125 µmol/L
- concentration that completely inhibited PEDV replication (PEDV [1]): 7.8 µmol/L
- concentration at which PEDV-induced CPE was obviously blocked (PEDV [2]): 0.5 µmol/L
- CC50 [3]: 1700 to 15000 nM
- EC50 (PDCoV): 20 nM

Compound: GC376
- IC50 (PEDV 3CL^pro): 1110 nM

Compound: N#C[C@@]1(c2ccc3c(N)ncnn23)O[C@H](CO)[C@@H](O)[C@H]1O [RDV-N]
- fluorescence intensity (viral protein expression) (PEDV spike protein): significantly decreased
- maximal non-toxic concentration (MNTC) (Vero E6 cells): 125 µmol/L
- fold more potent than NHC (EC50) (PEDV [1]; 72 h post infection, qRT-PCR): 3
- concentration that completely inhibited PEDV replication (PEDV [1]): 2.0 µmol/L
- lipophilicity [4]: low lipophilicity
- water solubility [4]: poor water solubility
- half-life ([5]; male, ICR, mouse, plasma, iv, 25 mg/kg): 1.02 h
- half-life ([5]; male, ICR, mouse, plasma, po, 50 mg/kg): 1.2 h
- Tmax ([5]; male, ICR, mouse, plasma, po, 50 mg/kg, Tmax, mice): ≤ 1 h
- AUClast ([5]; mice, IV, 25 mg/kg): 14,513 h × ng/mL
- AUClast ([5]; mice, PO, 50 mg/kg): 4556 ng·h/mL
- Cmax ([5]; mice, PO, 50 mg/kg): 1826 ng/mL
- cure rate [6]: 100%
- concentration at which PEDV-induced CPE was obviously blocked (PEDV [2]): 0.2 µmol/L
